Our source for the EC50 values is US12552772B2, “2-pyrazole anilines and related analogs for inhibiting YAP/TAZ-TEAD” (KATHOLIEKE UNIVERSITEIT LEUVEN, priority 2021, dated 2026).

Each structure is given as a SMILES string.

Holding throughout (format): cell-based
One assay has as its system NCI-H226. The assay is described as follows: Mesothelioma cell line proliferation assay (ATPlite), NCI-H226. Conditions: Homo sapiens, 144 h; NCI-H226 cells, 6 days, ATPlite cell viability. In outline:
(§1)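 Mesothelioma cells seeded at 1500 cells/well in RPMI 1640 with 10% FBS, incubated overnight, then treated with compound dose-response in DMSO for 6 days at 37° C, 5% CO2. Viability read by ATPlite luminescence; percent inhibition used to derive EC50.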

The subject of another assay is H2452. Kind of assay: Mesothelioma cell line proliferation assay, H2452. Conditions: Homo sapiens, NCI-H2452; H2452 cells.
For assay [1], the system named is YAP/TAZ-TEAD transcription. Kind of assay: Reporter gene assay for measuring the inhibition of YAP/TAZ-TEAD transcription (TEAD-responsive element luciferase reporter in Hek293T cells). Conditions: Homo sapiens, HEK-293T, 24 hours incubation. In outline: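 Percent inhibition, scaled between vehicle (0%) and a positive control inhibitor (100%), came from SteadyLite luciferase signal after 24 h compound exposure at 37 °C/5% CO2. Cells: Hek293T transiently carrying a TEAD-responsive luciferase reporter; EC50 derived.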

For the next assay, the system named is NCI-H2052. Kind of assay: Mesothelioma cell line proliferation assay (ATPlite), NCI-H2052. Conditions: Homo sapiens, NCI-H2052, 144 h, NCI-H2052 cells, 6 days, ATPlite cell viability. The procedure, abridged: as §1

`CNS(=O)(=O)CCNc1ccc(-c2ccc(F)cc2)cc1-c1ccn(Cc2cccnc2)n1` [compound 086, 2-((4′-fluoro-3-(1-(pyridin-3-ylmethyl)-1H-pyrazol-3-yl)-[1,1′-biphenyl]-4-yl)amino)-N-methylethane-1-sulfonamide]: the EC50 is 1 to 10 µM in the assay with NCI-H226, over 10 µM in the assay on H2452 and under 1 µM in assay [1].

As for `CNS(=O)(=O)CCNc1ccc(-c2ccc(C(F)(F)F)cc2)cc1-c1ccn(Cc2cccnc2)n1` [compound 087, N-methyl-2-((3-(1-(pyridin-3-ylmethyl)-1H-pyrazol-3-yl)-4′-(trifluoromethyl)-[1,1′-biphenyl]-4-yl)amino)ethane-1-sulfonamide], the EC50 is 1 to 10 µM in the assay on NCI-H226, over 10 µM in the assay on H2452 and under 1 µM in assay [1].

On to `CNS(=O)(=O)CCNc1ccc(-c2ccc(F)c(F)c2)cc1-c1ccn(Cc2cccnc2)n1` [compound 093, 2-((3′,4′-difluoro-3-(1-(pyridin-3-ylmethyl)-1H-pyrazol-3-yl)-[1,1′-biphenyl]-4-yl)amino)-N-methylethane-1-sulfonamide], for which the EC50 in the assay on NCI-H226 is under 1 µM; with H2452 it was over 10 µM; in assay [1] it was under 1 µM.

Take `C=CC(=O)NCc1ccc(-c2ccc(F)cc2)cc1-c1cn(C)nn1` [compound 184, N-((4′-fluoro-3-(1-methyl-1H-1,2,3-triazol-4-yl)-[1,1′-biphenyl]-4-yl)methyl)acrylamide]: the EC50 (in the assay on NCI-H226; in the assay on NCI-H2052; in assay [1]) was under 1 µM throughout.

On to `C=CC(=O)NCc1ccc(-c2ccc(F)cc2)cc1-c1cn(C(F)F)nn1` [compound 185, N-((3-(1-(difluoromethyl)-1H-1,2,3-triazol-4-yl)-4′-fluoro-[1,1′-biphenyl]-4-yl)methyl)acrylamide], for which the EC50 was under 1 µM in the assay on NCI-H226, 1 to 10 µM in the assay on NCI-H2052 and under 1 µM in assay [1].

In the case of `C=CC(=O)NCc1ccc(-c2ccc(F)cc2)cc1-c1cnn(C)n1` [compound 187, N-((4′-fluoro-3-(2-methyl-2H-1,2,3-triazol-4-yl)-[1,1′-biphenyl]-4-yl)methyl)acrylamide], the figures for the EC50 (in the assay with NCI-H226; in the assay on NCI-H2052; in assay [1]) were under 1 µM, 1 to 10 µM and under 1 µM, respectively.

Consider `C=CC(=O)NCc1ccc(-c2ccc(F)cc2)cc1-c1nnn(C)n1` [compound 188, N-((4′-fluoro-3-(2-methyl-2H-tetrazol-5-yl)-[1,1′-biphenyl]-4-yl)methyl)acrylamide], for which the EC50 (in the assay with NCI-H226; in the assay with NCI-H2052; in assay [1]) was under 1 µM each time.

For `C=CC(=O)NCc1ccc(-c2ccc(F)cc2)cc1-c1nnn(C(F)F)n1` [compound 190, N-((3-(2-(difluoromethyl)-2H-tetrazol-5-yl)-4′-fluoro-[1,1′-biphenyl]-4-yl)methyl)acrylamide], the results for the EC50 (in the assay with NCI-H226; with NCI-H2052; in assay [1]) were under 1 µM, 1 to 10 µM and under 1 µM, respectively.

As to `C=CC(=O)NCc1ccc(-c2ccc(F)cc2)nc1-c1ccn(C)n1` [compound 193, N-((6-(4-fluorophenyl)-2-(1-methyl-1H-pyrazol-3-yl)pyridin-3-yl)methyl)acrylamide], the EC50 (with NCI-H226; in the assay on NCI-H2052; in assay [1]) was under 1 µM each time.

`C=CC(=O)NCc1ccc(-c2ccccc2)nc1-c1ccn(C)n1` [compound 194, N-((2-(1-methyl-1H-pyrazol-3-yl)-6-phenylpyridin-3-yl)methyl)acrylamide]: the EC50 (with NCI-H226; in the assay with NCI-H2052; in assay [1]) was under 1 µM throughout.

On to `C=CC(=O)NCc1ccc(-c2ccc(F)cc2)nc1-c1ccn(C(F)F)n1` [compound 198, N-((2-(1-(difluoromethyl)-1H-pyrazol-3-yl)-6-(4-fluorophenyl)pyridin-3-yl)methyl)acrylamide], for which the EC50 (in the assay with NCI-H226; with NCI-H2052; in assay [1]) was under 1 µM each time.

For `C=CC(=O)NCc1ncc(-c2ccc(F)cc2)cc1-c1ccn(C)n1` [compound 201, N-((5-(4-fluorophenyl)-3-(1-methyl-1H-pyrazol-3-yl)pyridin-2-yl)methyl)acrylamide], the EC50 (in the assay on NCI-H226; with NCI-H2052; in assay [1]) was under 1 µM each time.

For the molecule `C=CC(=O)NCc1ncc(-c2ccc(F)cc2)cc1-c1ccn(C2CC2)n1` [compound 202, N-((3-(1-cyclopropyl-1H-pyrazol-3-yl)-5-(4-fluorophenyl)pyridin-2-yl)methyl)acrylamide], the EC50 (in the assay with NCI-H226; in the assay on NCI-H2052; in assay [1]) was under 1 µM throughout.

Take `C=CC(=O)NCc1ncc(-c2ccc(F)cc2)cc1-c1ccn(C(F)F)n1` [compound 203, N-((3-(1-(difluoromethyl)-1H-pyrazol-3-yl)-5-(4-fluorophenyl)pyridin-2-yl)methyl)acrylamide]: the EC50 (in the assay with NCI-H226; with NCI-H2052; in assay [1]) was under 1 µM each time.

For the molecule `C=CC(=O)NCc1cnc(-c2ccc(F)cc2)cc1-c1ccn(C)n1` [compound 205, N-((6-(4-fluorophenyl)-4-(1-methyl-1H-pyrazol-3-yl)pyridin-3-yl)methyl)acrylamide], the EC50 (in the assay with NCI-H226; in the assay on NCI-H2052; in assay [1]) was under 1 µM throughout.

With `C=CC(=O)NCc1cnc(-c2ccc(F)cc2)cc1-c1ccn(C2CC2)n1` [compound 206, N-((4-(1-cyclopropyl-1H-pyrazol-3-yl)-6-(4-fluorophenyl)pyridin-3-yl)methyl)acrylamide], the EC50 (in the assay with NCI-H226; with NCI-H2052; in assay [1]) was under 1 µM in each case.

Consider `C=CC(=O)NCc1cnc(-c2ccc(F)cc2)cc1-c1ccn(C(F)F)n1` [compound 207, N-((4-(1-(difluoromethyl)-1H-pyrazol-3-yl)-6-(4-fluorophenyl)pyridin-3-yl)methyl)acrylamide], for which the EC50 (in the assay on NCI-H226; with NCI-H2052; in assay [1]) was under 1 µM throughout.

Take `C=CC(=O)NCc1cnc(-c2cccc(F)c2)cc1-c1ccn(C(F)F)n1` [compound 211, N-((4-(1-(difluoromethyl)-1H-pyrazol-3-yl)-6-(3-fluorophenyl)pyridin-3-yl)methyl)acrylamide]: the values for the EC50 (in the assay on NCI-H226; in the assay with NCI-H2052; in assay [1]) were under 1 µM, 1 to 10 µM and under 1 µM, respectively.

For `C=CC(=O)NCc1cnc(-c2cccc(Cl)c2)cc1-c1ccn(C(F)F)n1` [compound 213, N-((6-(3-chlorophenyl)-4-(1-(difluoromethyl)-1H-pyrazol-3-yl)pyridin-3-yl)methyl)acrylamide], the EC50 in the assay on NCI-H226 was under 1 µM; in the assay on NCI-H2052, 1 to 10 µM; in assay [1], under 1 µM.

`C=CC(=O)NCc1cnc(-c2cccc(C(F)(F)F)c2)cc1-c1ccn(C(F)F)n1` [compound 215, N-((4-(1-(difluoromethyl)-1H-pyrazol-3-yl)-6-(3-(trifluoromethyl)phenyl)pyridin-3-yl)methyl)acrylamide]: the values for the EC50 (in the assay with NCI-H226; with NCI-H2052; in assay [1]) were under 1 µM, 1 to 10 µM and under 1 µM, respectively.

As to `C=CC(=O)NCc1cnc(N2CCC(F)(F)CC2)cc1-c1ccn(C(F)F)n1` [compound 221, N-((4-(1-(difluoromethyl)-1H-pyrazol-3-yl)-6-(4,4-difluoropiperidin-1-yl)pyridin-3-yl)methyl)acrylamide], the EC50 in the assay on NCI-H226 was under 1 µM; with NCI-H2052, 1 to 10 µM; in assay [1], under 1 µM.

Regarding `C=CC(=O)NCc1cc(-c2ccc(F)cc2)cc(-c2cnn(C(F)F)c2)n1` [compound 227, N-((6-(1-(difluoromethyl)-1H-pyrazol-4-yl)-4-(4-fluorophenyl)pyridin-2-yl)methyl)acrylamide], the EC50 in the assay on NCI-H226 was under 1 µM; with NCI-H2052, over 10 µM; in assay [1], under 1 µM.

For the molecule `C=CC(=O)NCc1cnc(-c2ccc(F)cc2)cc1-n1ccc(C)n1` [compound 240, N-((6-(4-fluorophenyl)-4-(3-methyl-1H-pyrazol-1-yl)pyridin-3-yl)methyl)acrylamide], the EC50 (with NCI-H226; in the assay with NCI-H2052; in assay [1]) was under 1 µM in each case.

Consider `C=CC(=O)NCc1ccc(-c2ccc(F)cc2)cc1-n1ccc(C)n1` [compound 241, N-((4′-fluoro-3-(3-methyl-1H-pyrazol-1-yl)-[1,1′-biphenyl]-4-yl)methyl)acrylamide], for which the concentration giving a half-maximal response (EC50) in the assay with NCI-H226 was under 1 µM; with NCI-H2052, 1 to 10 µM; in assay [1], under 1 µM.

As to `C=CC(=O)NCc1cnc(-c2ccc(F)cc2)cc1-n1cc(C)cn1` [compound 243, N-((6-(4-fluorophenyl)-4-(4-methyl-1H-pyrazol-1-yl)pyridin-3-yl)methyl)acrylamide], the EC50 in the assay on NCI-H226 was under 1 µM; with NCI-H2052, 1 to 10 µM; in assay [1], under 1 µM.

Take `C=CC(=O)NCc1cnc(-c2ccc(F)cc2)cc1-n1ncc(C)n1` [compound 244, N-((6-(4-fluorophenyl)-4-(4-methyl-2H-1,2,3-triazol-2-yl)pyridin-3-yl)methyl)acrylamide]: the EC50 (in the assay on NCI-H226; in the assay with NCI-H2052; in assay [1]) was under 1 µM in each case.

Take `C=CC(=O)NCc1cnc(-c2ccc(F)cc2)nc1-c1ccn(C(F)F)n1` [compound 254, N-((4-(1-(difluoromethyl)-1H-pyrazol-3-yl)-2-(4-fluorophenyl)pyrimidin-5-yl)methyl)acrylamide]: the EC50 (in the assay on NCI-H226; in the assay on NCI-H2052; in assay [1]) was under 1 µM throughout.
